Measurements: patent US20220370440A1 (Lead Discovery Center GmbH, priority 2018, published 2022)

Assays:
[1] = Metabolic stability in mouse liver microsomes without cofactor NADPH; format: in vitro ADME; conditions: for Stability in presence of mouse liver microsomes without cofactor NADPH [% remaining after 50 min]: 3 μM test compound, 37° C., LC-MS/MS
From the text: There are two major groups of enzyme reactions catalyzed by drug metabolizing enzymes, the so called Phase I and Phase II reactions. The basic processes in phase I reactions are oxidation, reduction and/or hydrolysis mostly catalyzed by the cytochrome P450 (CYP) family of enzymes.
The following procedures describe the determination of the in vitro Phase I metabolic stability of test compounds using liver microsomes by measuring compound depletion over time. Test compound at the concentration of 3 μM was incubated with the liver microsomes from the mouse species and the experiment was performed without NADPH. The depletion of the test compounds was measured over time up to 50 minutes at 37° C. by LC-MS/MS. Different compounds were tested under these conditions for microsomal stability (see Table 5).

HER2 INS YVMA = molecular target: T1, HER2 INS YVMA (Homo sapiens, UniProt P04626, INS775YVMA); assay: Lance Kinase Activity Assay, HER2 INS YVMA (Her2 Exon 20 INSYVMA Lance); format: biochemical; conditions: biochemical Lance assay
T1 construct: purchased DPF
In short: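 IC50 was fitted to sigmoidal curves of TR-FRET signal (665 and 615 nm emission after 340 nm excitation) from an Eu anti-phospho antibody binding the phosphorylated ULight peptide. The ATP-started reaction ran 1 h at RT and was then quenched with 10 mM EDTA plus antibody for a further 1 h. Compounds were tested as 8-point, 3-fold dilutions.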

[2] = molecular target: Her2 Exon 20 INSYVMA Ba/F3 (Homo sapiens, UniProt P04626, DUP772-775, cells depend on it); assay: Her2 Exon 20 INSYVMA Ba/F3 CellTiter-Glo; format: cell-based; conditions: CellTiter-Glo, 72 h, read-out: Her2 Exon 20 INSYVMA Ba/F3 CTG IC50
Her2 Exon 20 INSYVMA Ba/F3, sequence (P04626 with tags, fused parts or gaps DUP772-775): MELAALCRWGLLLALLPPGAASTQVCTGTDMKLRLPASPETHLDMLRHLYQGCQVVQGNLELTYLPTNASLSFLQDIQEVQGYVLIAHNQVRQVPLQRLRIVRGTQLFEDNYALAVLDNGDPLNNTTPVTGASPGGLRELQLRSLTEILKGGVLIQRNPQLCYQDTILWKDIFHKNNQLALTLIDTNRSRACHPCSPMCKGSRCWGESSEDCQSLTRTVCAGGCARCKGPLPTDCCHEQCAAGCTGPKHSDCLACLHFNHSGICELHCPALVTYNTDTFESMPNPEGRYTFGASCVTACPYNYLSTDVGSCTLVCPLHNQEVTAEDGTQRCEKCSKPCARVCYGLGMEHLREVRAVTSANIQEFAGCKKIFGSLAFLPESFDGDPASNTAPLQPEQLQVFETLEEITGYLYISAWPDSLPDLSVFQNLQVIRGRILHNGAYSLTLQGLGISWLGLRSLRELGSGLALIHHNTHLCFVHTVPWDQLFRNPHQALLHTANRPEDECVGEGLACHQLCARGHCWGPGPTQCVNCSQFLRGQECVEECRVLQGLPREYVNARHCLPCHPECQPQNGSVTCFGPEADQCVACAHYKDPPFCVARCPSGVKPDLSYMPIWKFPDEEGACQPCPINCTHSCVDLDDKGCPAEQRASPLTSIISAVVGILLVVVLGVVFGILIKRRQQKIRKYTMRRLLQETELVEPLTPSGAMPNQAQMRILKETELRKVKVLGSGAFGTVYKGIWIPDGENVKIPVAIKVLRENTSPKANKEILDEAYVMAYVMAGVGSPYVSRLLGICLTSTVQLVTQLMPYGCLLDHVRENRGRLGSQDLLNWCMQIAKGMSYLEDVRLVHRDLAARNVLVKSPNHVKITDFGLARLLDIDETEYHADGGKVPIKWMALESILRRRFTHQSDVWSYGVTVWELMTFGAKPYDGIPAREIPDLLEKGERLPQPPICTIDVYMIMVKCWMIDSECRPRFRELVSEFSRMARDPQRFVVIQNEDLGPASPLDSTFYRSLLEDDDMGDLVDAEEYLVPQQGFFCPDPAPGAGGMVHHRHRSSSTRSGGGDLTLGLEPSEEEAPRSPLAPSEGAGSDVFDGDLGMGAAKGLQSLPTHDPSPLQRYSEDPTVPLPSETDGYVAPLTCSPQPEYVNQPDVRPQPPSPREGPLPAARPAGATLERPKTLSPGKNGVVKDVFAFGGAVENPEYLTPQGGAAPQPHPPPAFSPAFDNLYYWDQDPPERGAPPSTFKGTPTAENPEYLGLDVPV
In short: (§1)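 Ba/F3 cells were seeded, left 24 h at 37 °C/5% CO2, then exposed to compound dilutions in DMSO for 72 h. Viability was read as ATP luminescence (CellTiter-Glo) and IC50 fitted from dose–response curves; DMSO and 10 μM staurosporine defined the controls, and plates needed Z′ ≥0.5.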

[3] = molecular target: EGFR Exon 20 INSNPH Ba/F3 (Homo sapiens, UniProt P00533, DUP771-773, cells depend on it); assay: EGFR Exon 20 INSNPH Ba/F3 CellTiter-Glo; format: cell-based; conditions: CellTiter-Glo, 72 h, read-out: EGFR Exon 20 INSNPH Ba/F3 CTG IC50
EGFR Exon 20 INSNPH Ba/F3, sequence (P00533 with tags, fused parts or gaps DUP771-773): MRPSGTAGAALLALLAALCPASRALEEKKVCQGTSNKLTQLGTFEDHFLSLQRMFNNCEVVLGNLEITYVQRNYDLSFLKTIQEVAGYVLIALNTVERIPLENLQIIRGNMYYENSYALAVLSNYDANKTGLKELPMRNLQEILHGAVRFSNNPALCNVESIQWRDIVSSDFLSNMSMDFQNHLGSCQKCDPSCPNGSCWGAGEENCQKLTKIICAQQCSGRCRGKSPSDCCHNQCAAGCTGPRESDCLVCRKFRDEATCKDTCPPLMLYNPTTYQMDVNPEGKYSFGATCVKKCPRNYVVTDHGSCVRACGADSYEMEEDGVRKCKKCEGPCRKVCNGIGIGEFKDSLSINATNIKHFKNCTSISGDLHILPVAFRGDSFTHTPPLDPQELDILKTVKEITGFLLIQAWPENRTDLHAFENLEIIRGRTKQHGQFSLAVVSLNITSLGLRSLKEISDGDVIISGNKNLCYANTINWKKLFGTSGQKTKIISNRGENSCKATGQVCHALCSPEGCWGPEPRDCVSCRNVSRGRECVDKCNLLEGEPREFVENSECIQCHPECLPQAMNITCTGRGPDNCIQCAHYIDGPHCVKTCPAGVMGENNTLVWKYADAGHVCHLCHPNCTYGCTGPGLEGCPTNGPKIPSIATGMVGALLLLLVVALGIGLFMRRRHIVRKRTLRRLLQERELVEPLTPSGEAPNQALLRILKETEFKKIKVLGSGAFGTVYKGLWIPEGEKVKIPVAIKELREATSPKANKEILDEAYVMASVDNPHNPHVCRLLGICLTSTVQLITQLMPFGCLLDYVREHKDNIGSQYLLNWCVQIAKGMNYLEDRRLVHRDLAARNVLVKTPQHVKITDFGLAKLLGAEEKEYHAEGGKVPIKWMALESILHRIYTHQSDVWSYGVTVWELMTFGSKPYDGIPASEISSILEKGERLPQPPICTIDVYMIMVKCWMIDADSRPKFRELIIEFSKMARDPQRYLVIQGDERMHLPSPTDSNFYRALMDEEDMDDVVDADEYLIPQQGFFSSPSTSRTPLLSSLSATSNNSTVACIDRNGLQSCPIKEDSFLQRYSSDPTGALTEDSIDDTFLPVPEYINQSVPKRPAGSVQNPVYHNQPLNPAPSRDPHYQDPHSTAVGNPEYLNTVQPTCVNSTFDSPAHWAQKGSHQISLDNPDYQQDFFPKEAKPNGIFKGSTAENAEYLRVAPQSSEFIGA
In short: as §1

EGFR T790ML858R = EGFR T790ML858R (Homo sapiens, UniProt P00533, L858R/T790M); assay: EGFR T790ML858R Lance assay; format: biochemical
EGFR T790ML858R, sequence (P00533 25-1210 T790M/L858R): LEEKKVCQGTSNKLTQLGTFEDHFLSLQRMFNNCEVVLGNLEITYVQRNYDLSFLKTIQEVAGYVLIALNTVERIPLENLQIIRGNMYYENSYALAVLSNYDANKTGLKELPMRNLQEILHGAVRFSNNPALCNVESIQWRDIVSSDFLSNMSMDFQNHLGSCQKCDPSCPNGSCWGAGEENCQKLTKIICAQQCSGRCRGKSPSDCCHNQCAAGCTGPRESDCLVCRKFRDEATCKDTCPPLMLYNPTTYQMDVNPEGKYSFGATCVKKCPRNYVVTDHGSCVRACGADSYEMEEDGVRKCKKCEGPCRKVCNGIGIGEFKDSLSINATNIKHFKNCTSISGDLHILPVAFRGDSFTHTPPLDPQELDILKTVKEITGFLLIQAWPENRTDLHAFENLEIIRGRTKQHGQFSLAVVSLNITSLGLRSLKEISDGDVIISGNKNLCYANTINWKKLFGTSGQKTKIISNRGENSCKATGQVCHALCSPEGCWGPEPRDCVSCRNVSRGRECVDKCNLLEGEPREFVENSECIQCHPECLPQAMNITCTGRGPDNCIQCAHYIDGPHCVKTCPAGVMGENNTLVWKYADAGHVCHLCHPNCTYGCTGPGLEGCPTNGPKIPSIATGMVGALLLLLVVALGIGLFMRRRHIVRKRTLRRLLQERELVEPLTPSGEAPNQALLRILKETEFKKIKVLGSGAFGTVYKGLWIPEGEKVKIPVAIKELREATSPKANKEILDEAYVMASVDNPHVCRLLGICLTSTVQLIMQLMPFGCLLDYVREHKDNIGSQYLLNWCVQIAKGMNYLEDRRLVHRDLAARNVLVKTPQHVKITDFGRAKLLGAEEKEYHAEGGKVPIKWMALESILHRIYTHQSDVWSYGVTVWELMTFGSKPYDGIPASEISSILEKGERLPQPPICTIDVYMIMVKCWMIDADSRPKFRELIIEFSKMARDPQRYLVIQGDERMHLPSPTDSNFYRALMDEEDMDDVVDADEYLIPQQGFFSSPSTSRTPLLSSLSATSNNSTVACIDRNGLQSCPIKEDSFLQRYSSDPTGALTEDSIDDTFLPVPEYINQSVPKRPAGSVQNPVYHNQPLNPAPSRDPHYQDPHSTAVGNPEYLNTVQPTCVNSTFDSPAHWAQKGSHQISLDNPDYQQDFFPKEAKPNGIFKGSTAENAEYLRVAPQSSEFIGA
Description: (§2) Inhibition is indicated as […] [nM] (“−”=not measured). Compounds having an activity designated as “A” provided an IC50≤100 nM; compounds having an activity designated as “B” provided an 100 nM<IC50≤500 nM; compounds having an activity designated as “C” provided an 500 nM<IC50≤1000 nM; compounds having an activity designated as “D” provided an 1000 nM<IC50≤100000 nM; and compounds having an activity designated as “E” provided an IC50>10000 nM.

EGFR wt = EGFR wt (Homo sapiens, UniProt P00533); assay: EGFR wt Lance assay; format: biochemical
EGFR wt, sequence (P00533 25-1210): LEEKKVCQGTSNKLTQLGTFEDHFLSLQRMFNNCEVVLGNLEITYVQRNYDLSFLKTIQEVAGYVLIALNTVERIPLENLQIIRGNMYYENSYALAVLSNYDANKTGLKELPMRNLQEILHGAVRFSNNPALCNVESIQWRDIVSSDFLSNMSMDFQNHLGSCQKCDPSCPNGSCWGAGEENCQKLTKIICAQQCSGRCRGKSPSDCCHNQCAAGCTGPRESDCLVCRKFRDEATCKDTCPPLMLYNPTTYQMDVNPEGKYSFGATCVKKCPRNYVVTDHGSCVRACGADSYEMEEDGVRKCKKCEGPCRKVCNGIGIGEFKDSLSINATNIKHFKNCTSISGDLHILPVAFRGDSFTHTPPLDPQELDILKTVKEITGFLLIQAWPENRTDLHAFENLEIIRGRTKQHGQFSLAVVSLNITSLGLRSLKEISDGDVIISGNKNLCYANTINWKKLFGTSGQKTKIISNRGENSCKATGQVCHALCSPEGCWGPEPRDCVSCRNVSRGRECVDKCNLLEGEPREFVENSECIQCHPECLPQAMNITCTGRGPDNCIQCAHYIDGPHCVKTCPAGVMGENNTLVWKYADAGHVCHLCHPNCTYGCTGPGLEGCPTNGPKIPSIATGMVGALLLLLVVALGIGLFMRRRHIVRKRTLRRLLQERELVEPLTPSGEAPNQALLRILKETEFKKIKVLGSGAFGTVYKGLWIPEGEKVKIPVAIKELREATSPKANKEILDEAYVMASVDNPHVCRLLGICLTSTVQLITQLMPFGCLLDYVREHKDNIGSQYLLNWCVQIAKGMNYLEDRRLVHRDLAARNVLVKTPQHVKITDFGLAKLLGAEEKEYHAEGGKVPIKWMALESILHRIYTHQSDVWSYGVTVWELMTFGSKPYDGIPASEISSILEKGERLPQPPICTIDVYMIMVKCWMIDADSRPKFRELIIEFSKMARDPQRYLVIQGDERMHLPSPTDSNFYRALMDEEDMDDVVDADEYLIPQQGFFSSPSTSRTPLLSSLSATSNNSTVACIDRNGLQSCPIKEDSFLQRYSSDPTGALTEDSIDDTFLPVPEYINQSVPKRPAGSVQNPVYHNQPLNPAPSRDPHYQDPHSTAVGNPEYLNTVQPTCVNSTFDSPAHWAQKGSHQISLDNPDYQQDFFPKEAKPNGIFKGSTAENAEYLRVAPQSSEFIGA
Description: as §2

H1975 = H1975 CellTiter-Glo; format: cell-based; conditions: Homo sapiens, NCI-H1975; 72 h compound incubation; read-out: H1975 CTG IC50
In short: (§3)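 Seed cells; incubate 24 h at 37° C., 5% CO2; add compound in DMSO over a concentration range; incubate 72 h; add CellTiter-Glo reagent, stabilise 10 min at room temperature; read luminescence; fit IC50.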

A431 = A431 CellTiter-Glo; format: cell-based; conditions: Homo sapiens, A-431; 72 h compound incubation; read-out: A431 CTG IC50
In short: as §3

| SMILES | Stability in presence of mouse liver microsomes without cofactor NADPH [% remaining after 50 min] [1] | IC50 (HER2 INS YVMA) | GI50 [2] | GI50 [3] | IC50 (EGFR T790ML858R) | IC50 (EGFR wt) | IC50 (H1975) | major metabolite observed ([1]; mouse liver microsomes with and without the cofactor NADPH) | IC50 (A431) |
| --- | --- | --- | --- | --- | --- | --- | --- | --- | --- |
| C=CC(=O)Nc1cc(-c2c(-c3ccc(NC(C)=O)cc3)[nH]c3nccc(Cl)c23)ccc1C [Example 14, N-(5-(2-(4-acetamidophenyl)-4-chloro-1H-pyrrolo[2,3-b]pyridin-3-yl)-2-methylphenyl)acrylamide] | 68 % remaining after 50 min | 100 to 500 nM | 500 to 1000 nM | 500 to 1000 nM | ≤ 100 nM | ≤ 100 nM | 100 to 500 nM | – | – |
| C=CC(=O)Nc1cc(-c2c(-c3cccc(C(=O)N4CCOCC4)c3)[nH]c3nccc(Cl)c23)ccc1C [Example 27, N-(5-(4-chloro-2-(3-(morpholine-4-carbonyl)phenyl)-1H-pyrrolo[2,3-b]pyridin-3-yl)-2-methylphenyl)acrylamide] | >99 % remaining after 50 min | 500 to 1000 nM | 1000 to 10000 nM | 1000 to 10000 nM | ≤ 100 nM | 100 to 500 nM | 100 to 500 nM | – | – |
| C=CC(=O)Nc1cc(-c2c(-c3cccc(OCCCN(C)C)c3)[nH]c3nccc(Cl)c23)ccc1C [Example 20, N-(5-(4-chloro-2-(3-(3-(dimethylamino)propoxy)phenyl)-1H-pyrrolo[2,3-b]pyridin-3-yl)-2-methylphenyl)acrylamide] | >99 % remaining after 50 min | ≤ 100 nM | 500 to 1000 nM | 500 to 1000 nM | ≤ 100 nM | ≤ 100 nM | ≤ 100 nM | – | – |
| C=CC(=O)Nc1cc(-c2c(-c3ccc(C4CCN(C)CC4)cc3)[nH]c3nccc(OCC)c23)ccc1C [Example 147, 2,2,2-trifluoroacetate] | 94 % remaining after 50 min | ≤ 100 nM | 500 to 1000 nM | 500 to 1000 nM | ≤ 100 nM | ≤ 100 nM | ≤ 100 nM | – | – |
| C=CC(=O)Nc1cccc(-c2c(-c3ccc(C4CCN(C)CC4)cc3)[nH]c3ncccc23)c1 [Reference 1, reference compound] | 33 % remaining after 50 min | – | – | – | – | – | – | hydrolysis of the acrylamide moiety | – |
| C=CC(=O)Nc1cc(-c2c(-c3ccc(N4CCOCC4)nc3)[nH]c3nccc(Cl)c23)ccc1C [Example 30, N-(5-(4-chloro-2-(6-morpholinopyridin-3-yl)-1H-pyrrolo[2,3-b]pyridin-3-yl)-2-methylphenyl)acrylamide] | >99 % remaining after 50 min | 100 to 500 nM | 1000 to 10000 nM | 500 to 1000 nM | ≤ 100 nM | ≤ 100 nM | 100 to 500 nM | – | – |
| C=CC(=O)Nc1cc(-c2c(-c3cccc(N4CCOCC4)c3)[nH]c3nccc(Cl)c23)ccc1C [Example 6, N-(5-(4-chloro-2-(3-morpholinophenyl)-1H-pyrrolo[2,3-b]pyridin-3-yl)-2-methylphenyl)acrylamide] | >99 % remaining after 50 min | 500 to 1000 nM | 500 to 1000 nM | 500 to 1000 nM | ≤ 100 nM | ≤ 100 nM | 100 to 500 nM | – | – |
| C=CC(=O)Nc1cc(-c2c(-c3cccc(CN4CCN(C(C)=O)CC4)c3)[nH]c3nccc(Cl)c23)ccc1C [Example 22, N-(5-(2-(3-((4-acetylpiperazin-1-yl)methyl)phenyl)-4-chloro-1H-pyrrolo[2,3-b]pyridin-3-yl)-2-methylphenyl)acrylamide] | >99 % remaining after 50 min | 100 to 500 nM | 500 to 1000 nM | 1000 to 10000 nM | ≤ 100 nM | 100 to 500 nM | 100 to 500 nM | – | – |
| C=CC(=O)Nc1cc(-c2c(-c3ccnc(N4CCOCC4)c3)[nH]c3nccc(Cl)c23)ccc1C [Example 32, N-(5-(4-chloro-2-(2-morpholinopyridin-4-yl)-1H-pyrrolo[2,3-b]pyridin-3-yl)-2-methylphenyl)acrylamide] | >99 % remaining after 50 min | 100 to 500 nM | 500 to 1000 nM | 500 to 1000 nM | ≤ 100 nM | ≤ 100 nM | ≤ 100 nM | – | – |
| C=CC(=O)Nc1cc(-c2c(-c3ccc(C4CCNCC4)cc3)[nH]c3nccc(Cl)c23)ccc1C [Example 29, N-(5-(4-chloro-2-(4-(piperidin-4-yl)phenyl)-1H-pyrrolo[2,3-b]pyridin-3-yl)-2-methylphenyl)acrylamide] | >99 % remaining after 50 min | ≤ 100 nM | 500 to 1000 nM | 500 to 1000 nM | ≤ 100 nM | ≤ 100 nM | ≤ 100 nM | – | – |

Now from value to molecule:

| Stability in presence of mouse liver microsomes without cofactor NADPH [% remaining after 50 min] [1] | IC50 (HER2 INS YVMA) | GI50 [2] | GI50 [3] | IC50 (EGFR T790ML858R) | IC50 (EGFR wt) | IC50 (H1975) | major metabolite observed ([1]; mouse liver microsomes with and without the cofactor NADPH) | IC50 (A431) | SMILES |
| --- | --- | --- | --- | --- | --- | --- | --- | --- | --- |
| 100 % remaining after 50 min | – | – | – | – | – | – | – | – | C=CC(=O)Nc1cc(-c2c(-c3ccc(N4CCN(C)CC4)cc3)[nH]c3ncc(C(=O)OC(C)C)cc23)ccc1C [Example 117, isopropyl 3-(3-acrylamido-4-methylphenyl)-2-(4-(4-methylpiperazin-1-yl)phenyl)-1H-pyrrolo[2,3-b]pyridine-5-carboxylate 2,2,2-trifluoroacetate] |
| 93 % remaining after 50 min | 100 to 500 nM | 500 to 1000 nM | 500 to 1000 nM | ≤ 100 nM | ≤ 100 nM | ≤ 100 nM | – | – | C=CC(=O)Nc1cc(-c2c(-c3ccc(N4CCN(C)CC4)cc3OC)[nH]c3nccc(Cl)c23)ccc1C [Example 21, N-(5-(4-chloro-2-(2-methoxy-4-(4-methylpiperazin-1-yl)phenyl)-1H-pyrrolo[2,3-b]pyridin-3-yl)-2-methylphenyl)acrylamide] |
| >99 % remaining after 50 min | 100 to 500 nM | 1000 to 10000 nM | 1000 to 10000 nM | ≤ 100 nM | 500 to 1000 nM | 100 to 500 nM | – | – | C=CC(=O)Nc1cc(-c2c(-c3ccc(N4CCN(C(C)=O)CC4)nc3)[nH]c3nccc(Cl)c23)ccc1C [Example 31, N-(5-(2-(6-(4-acetylpiperazin-1-yl)pyridin-3-yl)-4-chloro-1H-pyrrolo[2,3-b]pyridin-3-yl)-2-methylphenyl)acrylamide] |
| 48 % remaining after 50 min | – | – | – | – | – | – | – | – | C=CC(=O)Nc1cc(OC)cc(-c2c(-c3ccc(N4CCN(C)CC4)cc3)[nH]c3ncccc23)c1 [Reference 2, reference compound] |
| – | ≤ 100 nM | 100 to 500 nM | 100 to 500 nM | ≤ 100 nM | ≤ 100 nM | 100 to 500 nM | – | 1000 to 100000 nM | C=CC(=O)Nc1cc(-c2c(-c3ccc(N4CCN(C)CC4)cc3)[nH]c3ncc(C(=O)OC4CCC4)cc23)ccc1C [Example 136, cyclobutyl 3-(3-acrylamido-4-methylphenyl)-2-(4-(4-methylpiperazin-1-yl)phenyl)-1H-pyrrolo[2,3-b]pyridine-5-carboxylate] |
| – | 100 to 500 nM | 500 to 1000 nM | 500 to 1000 nM | ≤ 100 nM | ≤ 100 nM | 100 to 500 nM | – | 1000 to 100000 nM | C=CC(=O)Nc1cc(-c2c(-c3ccc(N4CCN(C)CC4)cc3)[nH]c3ncc(C(=O)OC4CCCC4)cc23)ccc1C [Example 139, cyclopentyl 3-(3-acrylamido-4-methylphenyl)-2-(4-(4-methylpiperazin-1-yl)phenyl)-1H-pyrrolo[2,3-b]pyridine-5-carboxylate] |
